{"source": "patent US20220386613A1", "about": "“WEED CONTROL METHOD AND MIXED AGROCHEMICAL COMPOSITION FOR SOIL TREATMENT” (KUMIAI CHEMICAL INDUSTRY CO., LTD., priority 2019, published 2022)", "format_in_all_cases": "in vivo", "key": {"soybean (Glycine max)": {"system": "soybean (Glycine max)", "experiment": "Evaluation test of crop injury to soybean by soil treatment", "details": "15-mm rainfall", "description": "In a greenhouse having an average temperature of 25° C. (highest: 30° C., lowest: 25° C.), field soil (sandy loam) was filled in a plastic pot of 11 cm in length, width and depth, and a single seed of soybean (Glycine max) was sowed and covered with the same soil at a thickness of 2 cm. […] On the day of this chemical treatment, a total of 15-mm rainfall was artificially applied in 30 minutes using an artificial rain maker. Thereafter, the soybean was grown and, on Day 15 and Day 39 after the treatment or on Day 13 and Day 26 after the treatment, the growth conditions of the soybean were observed and examined in terms of the plant height and the number of leaves. The rates of reduction in the plant height and the number of leaves relative to an untreated area were each determined, and the thus determined rates of reduction were added and then divided by 2 to calculate the growth inhibition rate for evaluation of the degree of crop injury. […] It is noted here that, in Tables 2 to 5, each growth inhibition rate represents an average value of two crop injury evaluation tests. […] The values observed in the test each indicated an effect lower than the expected value calculated by the following Colby formula at a preferable dosage (see S. R. Colby, Weeds 15(1967), pp. 20-22). Colby's formula defines the expected value (E) as follows for the use of a combination of two chemical agents: (E)=X+Y−XY/100 wherein X represents the growth inhibition rate of an agent a at a concentration of x, and Y represents the growth inhibition rate of an agent b at a concentration of y."}, "[1]": {"system": "redroot amaranth (Amaranthus retroflexus)", "experiment": "Herbicidal effect evaluation test on weeds by soil treatment (redroot amaranth)", "details": "Day 18 after treatment (4 L)", "description": "(§1) In a greenhouse having an average temperature of 25° C. (highest: 30° C., lowest: 25° C.), field soil (sandy loam) was filled in a plastic pot of 11 cm in length, width and depth, and twenty seeds of each of barnyard grass (Echinochloa crus-galli) and redroot amaranth (Amaranthus retroflexus) were sowed and covered with the same soil at a thickness of 1 cm. […] On the day of this chemical treatment, a total of 2-mm rainfall was artificially applied in 30 minutes using an artificial rain maker. Thereafter, barnyard grass and redroot amaranth were grown and, on Day 18 after the treatment, the growth conditions of barnyard grass and redroot amaranth were observed and examined. The rates of reduction in the plant height and the number of leaves relative to an untreated area were each calculated, and the herbicidal effect was determined as a value obtained by adding the thus calculated rates of reduction and dividing this value by 2 for evaluation of the degree of the herbicidal effect. For example, the herbicidal effect is 90% when the plant height was decreased by 90% and the number of leaves was reduced from 10 to 1, while the herbicidal effect is 75% when the plant height was decreased by 70% and the number of leaves was reduced from 5 to 1. It is noted here that, in Table 1, each value of the herbicidal effect represents an average value of two herbicidal effect evaluation tests."}, "[2]": {"system": "barnyard grass (Echinochloa crus-galli)", "experiment": "Herbicidal effect evaluation test on weeds by soil treatment (barnyard grass)", "details": "Day 18 after treatment (4.2 L)", "description": "as §1"}, "[3]": {"details": "active component 70 g/ha (flumioxazin)"}, "[4]": {"details": "active component 140 g/ha (flumioxazin)"}, "[5]": {"details": "active component 25 g/ha (saflufenacil)"}, "[6]": {"details": "active component 50 g/ha (saflufenacil)"}, "[7]": {"details": "active component 160 g/ha (sulfentrazone)"}, "[8]": {"details": "active component 320 g/ha (sulfentrazone)"}}, "data": [{"smiles": "C#CCN1C(=O)COc2cc(F)c(N3C(=O)C4=C(CCCC4)C3=O)cc21", "note": "[Flumioxazin, flumioxazin]", "values": [{"measurement": "Soybean growth inhibition rate", "setting": "soybean (Glycine max); Table 2, 70 g/ha (flumioxazin), Day 15 after treatment", "result": 15, "unit": "%"}, {"measurement": "Soybean growth inhibition rate", "setting": "soybean (Glycine max); Table 2, 70 g/ha (flumioxazin), Day 39 after treatment", "result": 5, "unit": "%"}, {"measurement": "Soybean growth inhibition rate", "setting": "soybean (Glycine max); Table 3, 140 g/ha (flumioxazin), Day 15 after treatment", "result": 25, "unit": "%"}, {"measurement": "Soybean growth inhibition rate", "setting": "soybean (Glycine max); Table 3, 140 g/ha (flumioxazin), Day 39 after treatment", "result": 10, "unit": "%"}, {"measurement": "Soybean growth inhibition rate", "setting": "soybean (Glycine max); Table 4, 70 g/ha (flumioxazin), Day 13 after treatment", "result": 8, "unit": "%"}, {"measurement": "Soybean growth inhibition rate", "setting": "soybean (Glycine max); Table 4, 70 g/ha (flumioxazin), Day 26 after treatment", "result": 10, "unit": "%"}, {"measurement": "Herbicidal effect, redroot amaranth", "setting": "[1]; [3]", "result": 100, "unit": "%"}, {"measurement": "Herbicidal effect, redroot amaranth", "setting": "[1]; [4]", "result": 100, "unit": "%"}, {"measurement": "Herbicidal effect, barnyard grass", "setting": "[2]; [3]", "result": 100, "unit": "%"}, {"measurement": "Herbicidal effect, barnyard grass", "setting": "[2]; [4]", "result": 100, "unit": "%"}]}, {"smiles": "CC(C)N(C)S(=O)(=O)NC(=O)c1cc(-n2c(=O)cc(C(F)(F)F)n(C)c2=O)c(F)cc1Cl", "note": "[Saflufenacil, saflufenacil]", "values": [{"measurement": "Soybean growth inhibition rate", "setting": "soybean (Glycine max); Table 4, 25 g/ha (saflufenacil), Day 13 after treatment", "result": 20, "unit": "%"}, {"measurement": "Soybean growth inhibition rate", "setting": "soybean (Glycine max); Table 4, 25 g/ha (saflufenacil), Day 26 after treatment", "result": 30, "unit": "%"}, {"measurement": "Soybean growth inhibition rate", "setting": "soybean (Glycine max); Table 5, 50 g/ha (saflufenacil), Day 13 after treatment", "result": 30, "unit": "%"}, {"measurement": "Soybean growth inhibition rate", "setting": "soybean (Glycine max); Table 5, 50 g/ha (saflufenacil), Day 26 after treatment", "result": 30, "unit": "%"}, {"measurement": "Herbicidal effect, redroot amaranth", "setting": "[1]; [5]", "result": 100, "unit": "%"}, {"measurement": "Herbicidal effect, redroot amaranth", "setting": "[1]; [6]", "result": 100, "unit": "%"}, {"measurement": "Herbicidal effect, barnyard grass", "setting": "[2]; [5]", "result": 15, "unit": "%"}, {"measurement": "Herbicidal effect, barnyard grass", "setting": "[2]; [6]", "result": 65, "unit": "%"}]}, {"smiles": "Cc1nn(-c2cc(NS(C)(=O)=O)c(Cl)cc2Cl)c(=O)n1C(F)F", "note": "[Sulfentrazone, sulfentrazone]", "values": [{"measurement": "Herbicidal effect, redroot amaranth", "setting": "[1]; [7]", "result": 100, "unit": "%"}, {"measurement": "Herbicidal effect, redroot amaranth", "setting": "[1]; [8]", "result": 100, "unit": "%"}, {"measurement": "Herbicidal effect, barnyard grass", "setting": "[2]; [7]", "result": 100, "unit": "%"}, {"measurement": "Herbicidal effect, barnyard grass", "setting": "[2]; [8]", "result": 100, "unit": "%"}]}]}
